Columns and labels:
Leishmania donovani [1] = test: microbe, parasite or virus in culture; assay type: functional, organism-based, MHOM/ET/67/L82; conditions: Leishmania donovani, MHOM/ET/67/L82, 96 h
Description: DNDI: Leish (macro) in Vitro, 96 hour

cells [2] = assay type: functional, cell-based; conditions: Rattus norvegicus, L6, 72 h
Description: DNDI: Cytotoxicity in Vitro, 72 hour, in rat skeletal myoblast cells

cells [3] = assay type: functional, cell-based; conditions: Mus musculus, NMRI, BalbC or CD1 mice, Macrophage, 96 h
Description: DNDI: Cytotoxicity in Vitro, 96 hour, in mouse macrophages (infected-amastigotes)

[4] = tested on: Trypanosoma brucei rhodesiense; test: microbe, parasite or virus in culture; assay type: functional, organism-based, STIB 900; conditions: Trypanosoma brucei, STIB 900, 72 h
Description: DNDI: HAT in Vitro, 72 hour

Plasmodium falciparum = test: microbe, parasite or virus in culture; assay type: functional, organism-based, K1; conditions: Plasmodium falciparum, K1, 72 h
Description: DNDI: Malaria in Vitro, 72 hour

Trypanosoma cruzi = test: microbe, parasite or virus in culture; assay type: functional, organism-based, Tulahuen C4 (LacZ); conditions: Trypanosoma cruzi, Tulahuen C4 (LacZ), 96 h
Description: DNDI: Chagas in Vitro, 96 hour

Leishmania donovani [5] = test: microbe, parasite or virus in culture; assay type: functional, organism-based, MHOM/ET/67/L82; conditions: Leishmania donovani, MHOM/ET/67/L82, 72 h
Description: DNDI: Leish (axenic) in Vitro, 72 hour

CC(C)CN(C[C@@H](O)[C@H](Cc1ccccc1)NC(=O)O[C@H]1CCOC1)S(=O)(=O)c1ccc(N)cc1
IC50 (Leishmania donovani [1]): > 59.3 µM | IC50 (cells [2]): 160 µM | IC50 (cells [3]): > 59.3 µM | IC50 [4]: 28.5 µM | IC50 (Plasmodium falciparum): 15.2 µM

CNCC[C@H](Oc1ccc(C(F)(F)F)cc1)c1ccccc1
IC50 (cells [2]): 15 µM | IC50 (cells [3]): 32.3 µM

CC(C)CN(C[C@@H](O)[C@H](Cc1ccccc1)NC(=O)O[C@H]1CO[C@H]2OCC[C@H]21)S(=O)(=O)c1ccc(N)cc1
IC50 (Leishmania donovani [1]): > 54.8 µM | IC50 (Trypanosoma cruzi): 92.2 µM | IC50 [4]: 31.4 µM | IC50 (Plasmodium falciparum): 46.9 µM

CSc1ccc2c(c1)N(CC[C@H]1CCCCN1C)c1ccccc1S2
IC50 (cells [2]): > 243 µM | IC50 (cells [3]): > 81 µM

C[C@@H](Cc1cccc(C(F)(F)F)c1)NCCOC(=O)c1ccccc1
IC50 (Leishmania donovani [1]): 54.4 µM | IC50 (cells [2]): 49.1 µM | IC50 (Trypanosoma cruzi): 73.7 µM | IC50 (cells [3]): > 85.4 µM | IC50 [4]: 21.1 µM | IC50 (Plasmodium falciparum): 6.52 µM

CCC[C@@]1(CCc2ccccc2)CC(O)=C([C@H](CC)c2cccc(NS(=O)(=O)c3ccc(C(F)(F)F)cn3)c2)C(=O)O1
IC50 (Leishmania donovani [5]): 1.64 µM | IC50 (Leishmania donovani [1]): > 49.8 µM | IC50 (cells [2]): 53.4 µM | IC50 (Trypanosoma cruzi): 28.2 µM | IC50 (cells [3]): > 49.8 µM | IC50 [4]: 26.4 µM | IC50 (Plasmodium falciparum): 44.6 µM

CC(C)(C)NC(=O)[C@@H]1CC2CCCCC2CN1C[C@@H](O)[C@H](Cc1ccccc1)NC(=O)[C@H](CC(N)=O)NC(=O)c1ccc2ccccc2n1 (stereo partly specified)
IC50 (Leishmania donovani [5]): 77.4 µM | IC50 (Leishmania donovani [1]): > 44.7 µM | IC50 (cells [2]): 18.2 µM | IC50 (Trypanosoma cruzi): 17.1 µM | IC50 (cells [3]): > 44.7 µM | IC50 [4]: 12.3 µM | IC50 (Plasmodium falciparum): 11.9 µM

C[C@H](N)C12CC3CC(CC(C3)C1)C2
IC50 (Leishmania donovani [1]): > 167 µM | IC50 (cells [2]): 311 µM | IC50 (cells [3]): > 167 µM | IC50 [4]: 13.8 µM | IC50 (Plasmodium falciparum): 0.97 µM

CC(C)(C)NC(=O)[C@@H]1CN(Cc2cccnc2)CCN1C[C@@H](O)C[C@@H](Cc1ccccc1)C(=O)N[C@H]1c2ccccc2C[C@H]1O
IC50 (Leishmania donovani [5]): > 141 µM | IC50 (Leishmania donovani [1]): > 42.3 µM | IC50 (cells [2]): > 141 µM | IC50 (Trypanosoma cruzi): 93.5 µM | IC50 (cells [3]): > 42.3 µM | IC50 [4]: 48.2 µM | IC50 (Plasmodium falciparum): 6.03 µM

Cc1c(O)cccc1C(=O)N[C@@H](CSc1ccccc1)[C@H](O)CN1C[C@H]2CCCC[C@H]2C[C@H]1C(=O)NC(C)(C)C
IC50 (Leishmania donovani [5]): 9.62 µM | IC50 (Leishmania donovani [1]): 20.2 µM | IC50 (cells [2]): 12.1 µM | IC50 (Trypanosoma cruzi): 10.2 µM | IC50 (cells [3]): > 52.8 µM | IC50 [4]: 20.6 µM | IC50 (Plasmodium falciparum): 10.4 µM

Nc1nc(N)c2nc(-c3ccccc3)c(N)nc2n1
IC50 (Leishmania donovani [1]): > 11.8 µM | IC50 (cells [2]): 8.53 µM | IC50 (Trypanosoma cruzi): 22.7 µM | IC50 (cells [3]): > 11.8 µM | IC50 [4]: 21.7 µM | IC50 (Plasmodium falciparum): 17.2 µM

CN1CC(=O)N2[C@H](c3ccc4c(c3)OCO4)c3[nH]c4ccccc4c3C[C@@H]2C1=O
IC50 (Leishmania donovani [5]): 40.1 µM | IC50 (Leishmania donovani [1]): > 77 µM | IC50 (cells [2]): 221 µM | IC50 (Trypanosoma cruzi): 8.6 µM | IC50 (cells [3]): > 77 µM | IC50 [4]: 97.6 µM | IC50 (Plasmodium falciparum): > 12.8 µM

CCCSc1ccc2[nH]c(NC(=O)OC)nc2c1 [ALBENDAZOLE]
IC50 (Leishmania donovani [5]): > 113 µM | IC50 (Leishmania donovani [1]): > 3.77 µM | IC50 (cells [2]): 0.41 µM | IC50 (Trypanosoma cruzi): 12.3 µM | IC50 (cells [3]): 11.3 µM | IC50 [4]: 14.7 µM

NC12CC3CC(CC(C3)C1)C2 [AMANTADINE]
IC50 (Leishmania donovani [5]): > 595 µM | IC50 (Leishmania donovani [1]): > 198 µM | IC50 (cells [2]): 215 µM | IC50 (cells [3]): > 198 µM | IC50 [4]: 52.8 µM | IC50 (Plasmodium falciparum): 5.67 µM

CN(C)CCC=C1c2ccccc2CCc2ccccc21 [AMITRIPTYLINE]
IC50 (Leishmania donovani [1]): > 10.8 µM | IC50 (cells [2]): 42.2 µM | IC50 (Trypanosoma cruzi): 35.1 µM | IC50 (cells [3]): 36.1 µM | IC50 [4]: 3.03 µM | IC50 (Plasmodium falciparum): 1.16 µM

Clc1ccc2c(c1)C(N1CCNCC1)=Nc1ccccc1O2 [AMOXAPINE]
IC50 (cells [2]): 16.2 µM | IC50 (cells [3]): 31.9 µM

O=C(O)COCCN1CCN(C(c2ccccc2)c2ccc(Cl)cc2)CC1 (stereo unspecified) [CETIRIZINE]
IC50 (Leishmania donovani [1]): > 70.5 µM | IC50 (cells [2]): 149 µM | IC50 (cells [3]): > 70.5 µM | IC50 [4]: 99.5 µM | IC50 (Plasmodium falciparum): 20 µM

CCN(CC)CCCC(C)Nc1ccnc2cc(Cl)ccc12 (stereo unspecified) [CHLOROQUINE]
IC50 (Leishmania donovani [5]): > 196 µM | IC50 (Leishmania donovani [1]): > 58.9 µM | IC50 (cells [2]): 50.6 µM | IC50 (Trypanosoma cruzi): 99.2 µM | IC50 (cells [3]): > 58.9 µM | IC50 [4]: 3.81 µM

CN/C(=N\CCSCc1nc[nH]c1C)NC#N [CIMETIDINE]
IC50 (Leishmania donovani [5]): > 396 µM | IC50 (Leishmania donovani [1]): > 119 µM | IC50 (cells [2]): 302 µM | IC50 (cells [3]): > 119 µM | IC50 [4]: > 396 µM | IC50 (Plasmodium falciparum): 29.2 µM

CN(C)CCCN1c2ccccc2CCc2ccc(Cl)cc21 [CLOMIPRAMINE]
IC50 (cells [2]): 19.8 µM | IC50 (cells [3]): 31.8 µM

Clc1ccc(C(OCCN2CCCCC2)c2ccccc2)cc1 (stereo unspecified) [CLOPERASTINE]
IC50 (Leishmania donovani [1]): > 30.3 µM | IC50 (cells [2]): 43.4 µM | IC50 (Trypanosoma cruzi): 9.46 µM | IC50 (cells [3]): 90.9 µM | IC50 [4]: 4.91 µM | IC50 (Plasmodium falciparum): 0.87 µM

Nc1ccc(S(=O)(=O)c2ccc(N)cc2)cc1 [DAPSONE]
IC50 (Leishmania donovani [5]): > 403 µM | IC50 (Leishmania donovani [1]): > 121 µM | IC50 (cells [2]): 204 µM | IC50 (cells [3]): > 121 µM

CCN(CC)CCOc1ccc(/C(=C(/Cl)c2ccccc2)c2ccccc2)cc1 [ENCLOMIPHENE]
IC50 (cells [2]): 13.1 µM | IC50 (cells [3]): 24.6 µM

Reference: ChEMBL document CHEMBL3392926, “Antiprotozoal Activity Profiling of Approved Drugs: A Starting Point toward Drug Repositioning”
